Measured values as given in patent US20110105397A1, “METHOD FOR TREATING HEART FAILURE WITH STRESSCOPIN-LIKE PEPTIDES” (priority 2009, published 2011).

Tested on: dogs with advanced heart failure
Assay: Hemodynamic, angiographic, echocardiographic profile in anaesthetized dogs with advanced heart failure, IV infusion
Assay type: in vivo, dog
Experimental: The effects of h-SCP (SEQ ID NO:1) on cardiovascular function were also assessed in anaesthetized dogs with advanced, irreversible heart failure of ischemic etiology (Sabbah et al., 1991, Am. J. Physiol., vol. 260, pp. H1379-H1384; Sabbah et al., 1994, Circulation, vol. 98, pp. 2852-2859; Chandler et al., 2002, Circ. Res., vol. 91, pp. 278-280). Progressive, advanced heart failure was produced in mongrel dogs by multiple sequential intracoronary microembolization with polystyrene latex microspheres. Dose infusions of 2.2, 4.3, and 7.3 ng/kg/min were administered intravenously over 60 minutes just following or just prior to hemodynamic, angiographic, echocardiographic, and Doppler measurements using conventional hemodynamic, angiographic, echocardiographic, and radiographic methods. The h-SCP polypeptide (SEQ ID NO:1) produced dose- (infusion-) dependent increases in LVEF and SV and decreases in left ventricular end diastolic pressure (LVEDP), left ventricular pressure during isovolumic relaxation (LV-dP/dt), systemic vascular resistance (SVR), and left ventricular end-systolic volume (LVESV) that correlated with plasma concentration. No significant change in heart rate, peak systolic aortic blood pressure, LV+dP/dt, mean pulmonary artery pressure, mean pulmonary artery wedge pressure, right atrial pressure, or myocardial oxygen consumption were recorded following any of the 1 hour intravenous infusions (Table 18 and FIGS. 12 A & B). The improvement in LV systolic and diastolic function was not associated with the development of de novo ventricular arrhythmias.
In order to determine the threshold effective dose-infusion in dogs with advanced heart failure, a further study was performed at lower dose infusions. In addition, the opportunity was taken to explore whether the increase in LVEF produced by higher dose-infusions of 4.3 ng/kg/min would remain stable over a longer infusion period, i.e. 120 minutes.
In order to understand the potential cardiovascular effects of neutralizing antibody formation to h-SCP (SEQ ID NO:1), SV30 (SEQ ID No. 118), a competitive antagonist of CRHR2, was administered to dogs (N=4) with advanced heart failure. […] These experiments with SV30 indicate that baseline cardiovascular parameters in dogs with advanced heart failure were not dependent upon endogenous hormone stimulation of CRHR2. Similar findings have been reported in healthy conscious and anaesthetized rats (Gardiner et al., J. Pharmacol. Exp. Ther., 2007, vol 321, pp. 221-226).

[1] = Table 18, IV infusion 2.2 ng/kg/min, 60 min
[2] = Table 18, IV infusion 4.3 ng/kg/min, 60 min
[3] = Table 18, IV infusion 7.3 ng/kg/min, 60 min
[4] = Table 19, IV infusion 0.22 ng/kg/min, 60 min
[5] = Table 19, IV infusion 0.43 ng/kg/min, 60 min
[6] = Table 19, IV infusion 4.3 ng/kg/min, 60 min
[7] = Table 19, IV infusion 4.3 ng/kg/min, 120 min
[8] = Table 20, SEQ ID NO: 1 4.3 ng/kg/min + AS-30

How did the “-ESV” value [1] turn out when “H-TKFTLSLDVPTNIMNLLFNIAKAKNLRAQAAANAHLMAQI-NH2 [SEQ ID NO: 1, TKFTLSLDVPTNIMNLLFNIAKAKNLRAQAAANAHLMAQI-NH2]” was run?
Its value is 46 ± 1.7 mL.

What about the CO [1] of the same substance?
The CO was 1.56 ± 0.11 L/min.

And the EDV [1]?
The EDV was 66 ± 2.5 mL.

What about the EF [1] of the same substance?
Its EF is 31 ± 0.5^+++,a,b %.

And the HR [1]?
Its HR is 76 ± 2 beats/min.

What about the “LV Efficiency” value [1] of the same substance?
The value was 23.0 ± 3.1%.

What about the “LV+dP/dt (isovolumic contraction)” value [1] of the same substance?
Its value is 1477 ± 104 mmHg/sec.

What about the “LVCBF (total left ventricular coronary blood flow)” value (shortened to “LVCBF”) [1] of the same substance?
The value was 52 ± 5 mL/min.

What about the “LVEDP (left ventricular end diastolic pressure)” value [1] of the same substance?
Its value is 13 ± 0.9^+ mmHg.

And the “LV−dP/dt (isovolumic relaxation)” value [1]?
Its value is 1216 ± 44 mmHg/sec.

And the “MPAP (mean pulmonary artery pressure)” value [1]?
Its value is 15 ± 0.5 mmHg.

And the “MVO2 (myocardial oxygen consumption)” value [1]?
The value was 191 ± 14 μmols/min.

And the “PAWP (mean pulmonary artery wedge pressure)” value [1]?
The value was 9.0 ± 0.6 mmHg.

What about the PSAP [1] of the same substance?
Its PSAP is 90 ± 3 mmHg.

And the “RAP (mean right atrial pressure)” value [1]?
Its value is 5.7 ± 0.5 mmHg.

What about the SV [1] of the same substance?
Its SV is 20 ± 0.9^+ mL.

And the “SVR (systemic vascular resistance)” value [1]?
Its value is 4414 ± 193 dynes-sec-cm^−5.

What about the “-ESV” value [2] of the same substance?
The value was 43 ± 1.7 mL.

What about the CO [2] of the same substance?
Its CO is 1.61 ± 0.13 L/min.

What about the EDV [2] of the same substance?
The EDV was 65 ± 2.5 mL.

What about the EF [2] of the same substance?
Its EF is 33 ± 0.5^+++,c %.

And the HR [2]?
The HR was 73 ± 3 beats/min.

And the “LV Efficiency” value [2]?
The value was 26.0 ± 4.4%.

And the “LV+dP/dt (isovolumic contraction)” value [2]?
Its value is 1400 ± 71 mmHg/sec.

And the “LVCBF” value [2]?
The value was 57 ± 6 mL/min.

What about the “LVEDP (left ventricular end diastolic pressure)” value [2] of the same substance?
The value was 13 ± 0.4^+ mmHg.

And the “LV−dP/dt (isovolumic relaxation)” value [2]?
The value was 1094 ± 42^+ mmHg/sec.

And the “MPAP (mean pulmonary artery pressure)” value [2]?
Its value is 15 ± 0.5 mmHg.

And the “MVO2 (myocardial oxygen consumption)” value [2]?
The value was 177 ± 19 μmols/min.

What about the “PAWP (mean pulmonary artery wedge pressure)” value [2] of the same substance?
The value was 10 ± 0.6 mmHg.

And the PSAP [2]?
The PSAP was 87 ± 2 mmHg.

What about the “RAP (mean right atrial pressure)” value [2] of the same substance?
The value was 5.4 ± 0.4 mmHg.

What about the SV [2] of the same substance?
Its SV is 22 ± 0.9^++ mL.

What about the “SVR (systemic vascular resistance)” value [2] of the same substance?
Its value is 4144 ± 243^+ dynes-sec-cm^−5.

What about the “-ESV” value [3] of the same substance?
Its value is 41 ± 1.8^+ mL.

What about the CO [3] of the same substance?
The CO was 1.67 ± 0.09 L/min.

What about the EDV [3] of the same substance?
The EDV was 64 ± 2.4 mL.

What about the EF [3] of the same substance?
Its EF is 35 ± 0.9^+++ %.

What about the HR [3] of the same substance?
The HR was 74 ± 2 beats/min.

And the “LV Efficiency” value [3]?
Its value is 23.3 ± 3.2%.

And the “LV+dP/dt (isovolumic contraction)” value [3]?
Its value is 1398 ± 74 mmHg/sec.

And the “LVCBF” value [3]?
Its value is 59 ± 6 mL/min.

What about the “LVEDP (left ventricular end diastolic pressure)” value [3] of the same substance?
Its value is 12 ± 0.6^++ mmHg.

What about the “LV−dP/dt (isovolumic relaxation)” value [3] of the same substance?
Its value is 1112 ± 82^+ mmHg/sec.

And the “MPAP (mean pulmonary artery pressure)” value [3]?
Its value is 14 ± 0.4 mmHg.

And the “MVO2 (myocardial oxygen consumption)” value [3]?
The value was 196 ± 18 μmols/min.

What about the “PAWP (mean pulmonary artery wedge pressure)” value [3] of the same substance?
The value was 9.0 ± 0.3 mmHg.

What about the PSAP [3] of the same substance?
Its PSAP is 87 ± 2 mmHg.

What about the “RAP (mean right atrial pressure)” value [3] of the same substance?
The value was 5.0 ± 0.4 mmHg.

And the SV [3]?
The SV was 22 ± 0.9^++ mL.

And the “SVR (systemic vascular resistance)” value [3]?
The value was 3958 ± 182^++ dynes-sec-cm^−5.

What about the CO [4] of the same substance?
Its CO is 1.37 ± 0.04 L/min.

What about the HR [4] of the same substance?
Its HR is 75 ± 1.1 beats/min.

What about the “LV+dP/dt” value [4] of the same substance?
Its value is 1842 ± 127 mmHg/sec.

And the LVEDP [4]?
Its LVEDP is 14 ± 1.1 mmHg.

And the LVEDV [4]?
The LVEDV was 66 ± 1.5 mL.

What about the LVEF [4] of the same substance?
The LVEF was 28 ± 0.6%.

What about the LVESV [4] of the same substance?
The LVESV was 48 ± 1.2 mL.

And the “LV−dP/dt” value [4]?
The value was 1448 ± 155 mmHg/sec.

And the MPAP [4]?
The MPAP was 15 ± 0.7 mmHg.

And the PAWP [4]?
Its PAWP is 10.1 ± 0.6 mmHg.

What about the PSAP [4] of the same substance?
The PSAP was 97 ± 3.3 mmHg.

What about the SV [4] of the same substance?
Its SV is 18 ± 0.5 mL.

What about the SVR [4] of the same substance?
Its SVR is 4757 ± 287 dynes-sec-cm^−5.

What about the CO [5] of the same substance?
The CO was 1.50 ± 0.04 L/min.

And the HR [5]?
Its HR is 77 ± 1.0 beats/min.

What about the “LV+dP/dt” value [5] of the same substance?
The value was 1691 ± 96 mmHg/sec.

And the LVEDP [5]?
The LVEDP was 13 ± 1.4 mmHg.

And the LVEDV [5]?
The LVEDV was 65 ± 1.1 mL.

What about the LVEF [5] of the same substance?
The LVEF was 30 ± 0.9%.

What about the LVESV [5] of the same substance?
The LVESV was 45 ± 1.2 mL.

What about the “LV−dP/dt” value [5] of the same substance?
Its value is 1249 ± 120 mmHg/sec.

What about the MPAP [5] of the same substance?
Its MPAP is 15 ± 0.8 mmHg.

What about the PAWP [5] of the same substance?
Its PAWP is 9.6 ± 0.7 mmHg.

And the PSAP [5]?
Its PSAP is 93 ± 3.6 mmHg.

What about the SV [5] of the same substance?
The SV was 19 ± 0.5 mL.

What about the SVR [5] of the same substance?
Its SVR is 4134 ± 195 dynes-sec-cm^−5.

And the CO [6]?
Its CO is 1.68 ± 0.06^++,a,c L/min.

What about the HR [6] of the same substance?
Its HR is 79 ± 2.0 beats/min.

And the “LV+dP/dt” value [6]?
Its value is 1667 ± 88 mmHg/sec.

What about the LVEDP [6] of the same substance?
Its LVEDP is 12 + 1.4 mmHg.

What about the LVEDV [6] of the same substance?
Its LVEDV is 63 ± 1.3 mL.

And the LVEF [6]?
Its LVEF is 34 ± 1.4^+++,b,e %.

And the LVESV [6]?
The LVESV was 42 ± 1.4^++,a mL.

And the “LV−dP/dt” value [6]?
The value was 1166 ± 82 mmHg/sec.

What about the MPAP [6] of the same substance?
The MPAP was 15 ± 0.8 mmHg.

What about the PAWP [6] of the same substance?
The PAWP was 9.0 ± 0.6 mmHg.

And the PSAP [6]?
The PSAP was 92 ± 4.1 mmHg.

And the SV [6]?
The SV was 21 ± 0.8^+++,a,c mL.

What about the SVR [6] of the same substance?
Its SVR is 3638 ± 191^+,d dynes-sec-cm^−5.

What about the CO [7] of the same substance?
The CO was 1.83 ± 0.09^+++,b,e L/min.

What about the HR [7] of the same substance?
Its HR is 81 ± 3.6 beats/min.

And the “LV+dP/dt” value [7]?
Its value is 1640 ± 88 mmHg/sec.

And the LVEDP [7]?
The LVEDP was 12 ± 1.2 mmHg.

What about the LVEDV [7] of the same substance?
The LVEDV was 62 ± 1.3 mL.

What about the LVEF [7] of the same substance?
The LVEF was 37 ± 1.2^+++,b,e %.

And the LVESV [7]?
Its LVESV is 39 ± 1.4^+++,b,e mL.

What about the “LV−dP/dt” value [7] of the same substance?
Its value is 1124 ± 92 mmHg/sec.

What about the MPAP [7] of the same substance?
The MPAP was 15 ± 0.9 mmHg.

And the PAWP [7]?
Its PAWP is 9.4 ± 0.8 mmHg.

What about the PSAP [7] of the same substance?
The PSAP was 92 ± 4.3 mmHg.

And the SV [7]?
The SV was 23 ± 0.6^+++,a,e mL.

What about the SVR [7] of the same substance?
The SVR was 3372 ± 238^++,a,c dynes-sec-cm^−5.

And the CO [8]?
Its CO is 1.55 ± 0.08 L/min.

And the HR [8]?
The HR was 82 ± 4 beats/min.

And the “LV+dP/dt” value [8]?
The value was 1618 ± 79 mmHg/sec.

What about the LVEDP [8] of the same substance?
Its LVEDP is 15 ± 2 mmHg.

What about the LVEDV [8] of the same substance?
The LVEDV was 68 ± 2.1 mL.

And the LVEF [8]?
The LVEF was 28 ± 0.5%.

What about the LVESV [8] of the same substance?
Its LVESV is 49 ± 1.8 mL.

What about the MPAP [8] of the same substance?
The MPAP was 16 ± 0.8 mmHg.

And the PSAP [8]?
The PSAP was 90 ± 4 mmHg.

What about the SV [8] of the same substance?
The SV was 19 ± 0.4 mL.

What about the “infusion dose with minimal effect on left ventricular systolic and diastolic function” value (dogs with advanced heart failure, 60 minutes) of the same substance?
Its value is 0.43 ng/kg/min.
